Laboratory results reported in ChEMBL document CHEMBL3769377, “A synthesis, in silico, in vitro and in vivo study of thieno[2,3-b]pyridine anticancer analogues” (Medchemcomm, 2015).
Activity calls are given as the source filed them. The calls are words filed in the database; no cut-off is given here.

Key:
[1] = target: Serine/threonine-protein kinase 32C (Homo sapiens) (UniProt Q86UX6); experiment: Inhibition of human recombinant YANK3 assessed as residual activity at 10 uM after 1 hr by qPCR analysis relative to control
[2] = target: Serine/threonine-protein kinase PLK4 (Homo sapiens) (UniProt O00444); experiment: Inhibition of human recombinant PLK4 assessed as residual activity at 10 uM after 1 hr by qPCR analysis relative to control
[3] = target: Dual specificity mitogen-activated protein kinase kinase 1 (Homo sapiens) (UniProt Q02750); experiment: Inhibition of human recombinant MEK1 assessed as residual activity at 10 uM after 1 hr by qPCR analysis relative to control
Chain of Dual specificity mitogen-activated protein kinase kinase 1 (Homo sapiens) (Q02750 whole entry): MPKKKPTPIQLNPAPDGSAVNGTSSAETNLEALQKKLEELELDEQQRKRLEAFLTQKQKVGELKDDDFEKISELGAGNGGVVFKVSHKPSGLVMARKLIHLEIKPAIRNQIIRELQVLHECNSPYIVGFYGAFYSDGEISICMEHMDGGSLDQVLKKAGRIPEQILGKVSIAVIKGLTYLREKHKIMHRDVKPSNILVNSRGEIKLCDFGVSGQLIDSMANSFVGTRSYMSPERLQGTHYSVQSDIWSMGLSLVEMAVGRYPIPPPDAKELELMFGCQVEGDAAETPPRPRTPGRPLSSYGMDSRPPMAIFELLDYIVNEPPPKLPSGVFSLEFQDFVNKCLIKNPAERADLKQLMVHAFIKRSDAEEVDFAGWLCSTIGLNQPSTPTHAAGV

[4] = target: Glycogen synthase kinase-3 beta (Homo sapiens) (UniProt P49841); experiment: Inhibition of human recombinant GSK3B assessed as residual activity at 10 uM after 1 hr by qPCR analysis relative to control
Chain of Glycogen synthase kinase-3 beta (Homo sapiens) (P49841 whole entry, looked up): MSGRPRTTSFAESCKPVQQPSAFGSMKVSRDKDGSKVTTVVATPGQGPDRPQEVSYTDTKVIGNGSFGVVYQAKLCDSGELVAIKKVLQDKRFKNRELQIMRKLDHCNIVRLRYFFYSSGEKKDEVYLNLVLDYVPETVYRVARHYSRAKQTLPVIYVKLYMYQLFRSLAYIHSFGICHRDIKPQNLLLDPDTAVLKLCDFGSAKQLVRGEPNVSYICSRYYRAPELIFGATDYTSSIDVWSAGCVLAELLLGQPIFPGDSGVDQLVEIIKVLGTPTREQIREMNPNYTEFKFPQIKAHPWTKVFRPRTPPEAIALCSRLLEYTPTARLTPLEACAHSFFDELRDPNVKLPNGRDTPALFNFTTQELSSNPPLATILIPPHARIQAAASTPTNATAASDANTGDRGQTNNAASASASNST

[5] = target: High affinity nerve growth factor receptor (Homo sapiens) (UniProt P04629); experiment: Inhibition of human recombinant TRKA assessed as residual activity at 10 uM after 1 hr by qPCR analysis relative to control
Chain of High affinity nerve growth factor receptor (Homo sapiens) (P04629 33-796 limits assumed): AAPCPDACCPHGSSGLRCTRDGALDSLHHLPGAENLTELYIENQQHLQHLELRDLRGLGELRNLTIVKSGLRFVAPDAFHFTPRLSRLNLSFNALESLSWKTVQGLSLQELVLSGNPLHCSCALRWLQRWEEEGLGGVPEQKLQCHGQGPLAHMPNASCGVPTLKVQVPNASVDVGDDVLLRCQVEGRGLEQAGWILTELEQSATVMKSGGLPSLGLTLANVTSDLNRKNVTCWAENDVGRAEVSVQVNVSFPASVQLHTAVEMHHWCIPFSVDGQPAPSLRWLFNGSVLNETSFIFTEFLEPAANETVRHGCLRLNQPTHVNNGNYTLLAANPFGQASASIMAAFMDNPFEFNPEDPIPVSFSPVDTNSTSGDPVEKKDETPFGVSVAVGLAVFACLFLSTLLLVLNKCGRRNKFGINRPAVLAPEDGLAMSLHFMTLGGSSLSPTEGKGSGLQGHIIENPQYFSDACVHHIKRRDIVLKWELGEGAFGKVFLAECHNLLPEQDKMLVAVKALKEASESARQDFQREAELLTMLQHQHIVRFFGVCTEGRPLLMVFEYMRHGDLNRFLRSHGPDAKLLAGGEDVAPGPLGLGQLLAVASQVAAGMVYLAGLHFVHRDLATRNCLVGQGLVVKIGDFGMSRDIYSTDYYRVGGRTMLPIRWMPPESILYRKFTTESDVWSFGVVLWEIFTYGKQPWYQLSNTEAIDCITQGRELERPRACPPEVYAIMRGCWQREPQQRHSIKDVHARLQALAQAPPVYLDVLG

[6] = target: Dual specificity mitogen-activated protein kinase kinase 2 (Homo sapiens) (UniProt P36507); experiment: Inhibition of human recombinant MEK2 assessed as residual activity at 10 uM after 1 hr by qPCR analysis relative to control
Chain of Dual specificity mitogen-activated protein kinase kinase 2 (Homo sapiens) (P36507 whole entry): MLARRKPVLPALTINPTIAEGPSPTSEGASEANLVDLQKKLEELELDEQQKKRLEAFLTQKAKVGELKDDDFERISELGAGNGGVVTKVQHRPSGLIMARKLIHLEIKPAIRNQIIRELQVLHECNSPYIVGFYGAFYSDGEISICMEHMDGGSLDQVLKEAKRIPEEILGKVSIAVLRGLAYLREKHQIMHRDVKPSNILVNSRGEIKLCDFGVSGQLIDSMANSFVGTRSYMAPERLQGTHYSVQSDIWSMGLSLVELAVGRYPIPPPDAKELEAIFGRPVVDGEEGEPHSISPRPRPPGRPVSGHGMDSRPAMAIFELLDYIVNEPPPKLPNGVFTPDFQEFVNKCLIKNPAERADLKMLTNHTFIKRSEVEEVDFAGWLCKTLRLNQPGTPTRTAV

[7] = target: Fibroblast growth factor receptor 3 (Homo sapiens) (UniProt P22607); experiment: Inhibition of human recombinant FGFR3 assessed as residual activity at 10 uM after 1 hr by qPCR analysis relative to control
[8] = target: Ephrin type-A receptor 2 (Homo sapiens) (UniProt P29317); experiment: Inhibition of human recombinant EPHA2 assessed as residual activity at 10 uM after 1 hr by qPCR analysis relative to control
[9] = target: Protein kinase C epsilon type (Homo sapiens) (UniProt Q02156); experiment: Inhibition of human recombinant PRKCE assessed as residual activity at 10 uM after 1 hr by qPCR analysis relative to control
[10] = target: Tyrosine-protein kinase receptor UFO (Homo sapiens) (UniProt P30530); experiment: Inhibition of human recombinant AXL assessed as residual activity at 10 uM after 1 hr by qPCR analysis relative to control
[11] = target: Phosphatidylinositol 4-phosphate 3-kinase C2 domain-containing subunit beta (Homo sapiens) (UniProt O00750); experiment: Inhibition of human recombinant PIK3C2B assessed as residual activity at 10 uM after 1 hr by qPCR analysis relative to control
786-0 [12] = experiment: Antitumor activity against human 786-0 cells xenografted in athymic nude/beige mouse assessed as tumor growth inhibition at 0.16 mg/kg, ip qd after 24 days; assay type: functional, organism-based
[13] = target: Tyrosine-protein kinase JAK2 (Homo sapiens) (UniProt O60674); experiment: Inhibition of human recombinant JAK2 (JH1 domain-catalytic) assessed as residual activity at 10 uM after 1 hr by qPCR analysis relative to control
[14] = target: Mast/stem cell growth factor receptor Kit (Homo sapiens) (UniProt P10721); experiment: Inhibition of human recombinant KIT assessed as residual activity at 10 uM after 1 hr by qPCR analysis relative to control
Chain of Mast/stem cell growth factor receptor Kit (Homo sapiens) (P10721 whole entry): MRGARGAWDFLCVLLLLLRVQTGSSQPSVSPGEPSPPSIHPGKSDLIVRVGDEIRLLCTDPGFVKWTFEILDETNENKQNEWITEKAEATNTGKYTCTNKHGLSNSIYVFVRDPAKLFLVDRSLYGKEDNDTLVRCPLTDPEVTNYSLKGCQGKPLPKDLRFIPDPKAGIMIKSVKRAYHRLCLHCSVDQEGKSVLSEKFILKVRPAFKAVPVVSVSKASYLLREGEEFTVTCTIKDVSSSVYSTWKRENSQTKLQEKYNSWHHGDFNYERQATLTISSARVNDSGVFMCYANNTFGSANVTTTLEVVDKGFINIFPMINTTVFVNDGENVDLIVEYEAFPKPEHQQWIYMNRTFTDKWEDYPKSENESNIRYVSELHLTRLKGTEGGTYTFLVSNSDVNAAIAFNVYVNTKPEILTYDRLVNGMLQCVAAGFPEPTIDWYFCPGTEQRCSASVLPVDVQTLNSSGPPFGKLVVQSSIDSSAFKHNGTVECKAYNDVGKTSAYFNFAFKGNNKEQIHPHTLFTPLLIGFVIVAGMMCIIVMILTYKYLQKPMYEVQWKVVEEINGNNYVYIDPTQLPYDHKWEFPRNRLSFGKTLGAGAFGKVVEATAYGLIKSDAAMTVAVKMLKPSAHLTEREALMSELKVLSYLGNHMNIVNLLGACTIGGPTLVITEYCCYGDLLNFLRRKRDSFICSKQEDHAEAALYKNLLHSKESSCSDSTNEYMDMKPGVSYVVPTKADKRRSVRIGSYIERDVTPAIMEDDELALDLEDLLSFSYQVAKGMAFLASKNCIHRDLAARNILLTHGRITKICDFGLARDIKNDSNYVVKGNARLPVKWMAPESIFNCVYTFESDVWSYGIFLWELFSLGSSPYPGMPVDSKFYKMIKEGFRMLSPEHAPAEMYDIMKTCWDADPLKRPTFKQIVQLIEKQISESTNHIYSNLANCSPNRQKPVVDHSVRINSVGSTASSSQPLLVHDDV

[15] = target: Cyclin-dependent kinase 16 (Homo sapiens) (UniProt Q00536); experiment: Inhibition of human recombinant PCTK1 assessed as residual activity at 10 uM after 1 hr by qPCR analysis relative to control
[16] = target: Tyrosine-protein kinase ZAP-70 (Homo sapiens) (UniProt P43403); experiment: Inhibition of human recombinant ZAP70 assessed as residual activity at 10 uM after 1 hr by qPCR analysis relative to control
Mus musculus [17] = experiment: Toxicity in athymic nude/beige mouse xenografted with human 786-O cells assessed as signs of facial hirsutism at 0.16 mg/kg, ip qd after 24 days; assay type: organism-based, 786-0; conditions: in vivo, 576 h
[18] = target: Non-receptor tyrosine-protein kinase TYK2 (Homo sapiens) (UniProt P29597); experiment: Inhibition of human recombinant TYK2 (JH1 domain-catalytic) assessed as residual activity at 10 uM after 1 hr by qPCR analysis relative to control
[19] = target: Proto-oncogene tyrosine-protein kinase Src (Homo sapiens) (UniProt P12931); experiment: Inhibition of human recombinant SRC assessed as residual activity at 10 uM after 1 hr by qPCR analysis relative to control
[20] = tested on: Tyrosine-protein kinase ABL1 (Homo sapiens), P00519 [T315I]; experiment: Inhibition of human recombinant phosphorylated ABL1 T315I mutant assessed as residual activity at 10 uM after 1 hr by qPCR analysis relative to control
[21] = target: Cyclin-dependent kinase 2 (Homo sapiens) (UniProt P24941); experiment: Inhibition of human recombinant CDK2 assessed as residual activity at 10 uM after 1 hr by qPCR analysis relative to control
[22] = target: RAC-alpha serine/threonine-protein kinase (Homo sapiens) (UniProt P31749); experiment: Inhibition of human recombinant AKT1 assessed as residual activity at 10 uM after 1 hr by qPCR analysis relative to control
[23] = target: Tyrosine-protein kinase ABL1 (Homo sapiens) (UniProt P00519); experiment: Inhibition of human recombinant phosphorylated ABL1 assessed as residual activity at 10 uM after 1 hr by qPCR analysis relative to control
[24] = target: Serine/threonine-protein kinase Chk1 (Homo sapiens) (UniProt O14757); experiment: Inhibition of human recombinant CHEK1 assessed as residual activity at 10 uM after 1 hr by qPCR analysis relative to control
Chain of Serine/threonine-protein kinase Chk1 (Homo sapiens) (O14757 whole entry): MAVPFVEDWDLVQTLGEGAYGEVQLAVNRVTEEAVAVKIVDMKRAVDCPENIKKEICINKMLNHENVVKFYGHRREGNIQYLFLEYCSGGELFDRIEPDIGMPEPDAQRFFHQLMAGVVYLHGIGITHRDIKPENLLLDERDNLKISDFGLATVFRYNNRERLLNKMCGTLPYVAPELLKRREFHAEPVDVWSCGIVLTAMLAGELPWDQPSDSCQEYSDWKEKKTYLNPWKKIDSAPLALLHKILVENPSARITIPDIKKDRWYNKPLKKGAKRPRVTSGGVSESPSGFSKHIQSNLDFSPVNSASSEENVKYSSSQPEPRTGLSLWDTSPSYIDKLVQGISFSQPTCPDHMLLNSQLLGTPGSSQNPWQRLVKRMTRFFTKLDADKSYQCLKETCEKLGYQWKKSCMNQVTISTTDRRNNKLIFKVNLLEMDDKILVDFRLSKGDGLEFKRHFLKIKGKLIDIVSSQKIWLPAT

[25] = target: Insulin-like growth factor 1 receptor (Homo sapiens) (UniProt P08069); experiment: Inhibition of human recombinant IGF1R assessed as residual activity at 10 uM after 1 hr by qPCR analysis relative to control
[26] = tested on: Tyrosine-protein kinase ABL1 (Homo sapiens), P00519 [E255K]; experiment: Inhibition of human recombinant phosphorylated ABL1 E255K mutant assessed as residual activity at 10 uM after 1 hr by qPCR analysis relative to control
[27] = target: ALK tyrosine kinase receptor (Homo sapiens) (UniProt Q9UM73); experiment: Inhibition of human recombinant ALK assessed as residual activity at 10 uM after 1 hr by qPCR analysis relative to control
Chain of ALK tyrosine kinase receptor (Homo sapiens) (Q9UM73 19-1620 limits assumed): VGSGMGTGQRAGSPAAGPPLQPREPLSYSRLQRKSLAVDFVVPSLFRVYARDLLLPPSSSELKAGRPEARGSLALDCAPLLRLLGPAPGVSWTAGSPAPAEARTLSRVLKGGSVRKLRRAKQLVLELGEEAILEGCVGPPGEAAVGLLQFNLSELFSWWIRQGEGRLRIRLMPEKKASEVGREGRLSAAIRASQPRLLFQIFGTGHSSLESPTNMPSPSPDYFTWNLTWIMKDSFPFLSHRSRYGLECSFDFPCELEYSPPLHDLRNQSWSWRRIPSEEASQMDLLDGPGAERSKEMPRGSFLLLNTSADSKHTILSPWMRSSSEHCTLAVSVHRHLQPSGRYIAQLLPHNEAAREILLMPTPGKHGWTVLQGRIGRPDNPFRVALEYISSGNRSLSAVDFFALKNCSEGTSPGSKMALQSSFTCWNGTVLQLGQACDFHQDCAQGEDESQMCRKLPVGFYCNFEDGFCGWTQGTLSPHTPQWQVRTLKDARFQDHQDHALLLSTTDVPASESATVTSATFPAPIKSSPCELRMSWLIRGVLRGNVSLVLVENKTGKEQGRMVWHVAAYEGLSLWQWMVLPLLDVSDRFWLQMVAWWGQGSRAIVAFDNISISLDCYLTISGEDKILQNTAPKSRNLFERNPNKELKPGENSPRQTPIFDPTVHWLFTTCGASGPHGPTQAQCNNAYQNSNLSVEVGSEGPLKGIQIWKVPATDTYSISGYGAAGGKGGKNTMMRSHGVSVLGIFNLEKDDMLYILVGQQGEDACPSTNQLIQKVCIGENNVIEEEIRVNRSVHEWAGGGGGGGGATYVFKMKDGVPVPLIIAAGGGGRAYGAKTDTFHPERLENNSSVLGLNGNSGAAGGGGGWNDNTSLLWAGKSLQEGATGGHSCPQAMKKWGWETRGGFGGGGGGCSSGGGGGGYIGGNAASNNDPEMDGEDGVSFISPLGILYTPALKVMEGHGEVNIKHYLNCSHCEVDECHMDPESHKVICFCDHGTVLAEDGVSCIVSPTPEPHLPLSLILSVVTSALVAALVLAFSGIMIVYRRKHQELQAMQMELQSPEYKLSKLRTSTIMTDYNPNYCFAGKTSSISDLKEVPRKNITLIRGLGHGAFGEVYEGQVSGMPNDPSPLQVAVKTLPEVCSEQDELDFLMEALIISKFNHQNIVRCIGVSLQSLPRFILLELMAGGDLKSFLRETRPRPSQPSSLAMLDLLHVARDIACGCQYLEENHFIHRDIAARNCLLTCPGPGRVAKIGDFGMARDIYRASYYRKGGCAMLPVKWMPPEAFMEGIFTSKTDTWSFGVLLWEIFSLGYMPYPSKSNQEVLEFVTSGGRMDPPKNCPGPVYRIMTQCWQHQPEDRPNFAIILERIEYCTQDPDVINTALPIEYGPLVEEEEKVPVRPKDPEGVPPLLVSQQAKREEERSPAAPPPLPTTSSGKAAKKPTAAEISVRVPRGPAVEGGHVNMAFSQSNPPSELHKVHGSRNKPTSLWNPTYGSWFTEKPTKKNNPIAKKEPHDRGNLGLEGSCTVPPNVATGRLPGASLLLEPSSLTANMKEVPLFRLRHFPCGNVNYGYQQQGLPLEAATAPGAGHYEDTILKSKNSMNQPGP

Mus musculus [28] = experiment: Toxicity in athymic nude/beige mouse xenografted with human 786-O cells assessed as dark circles around eyes at 0.16 mg/kg, ip qd after 24 days; assay type: organism-based, 786-0; conditions: in vivo, 576 h
[29] = target: 3-phosphoinositide-dependent protein kinase 1 (Homo sapiens) (UniProt O15530); experiment: Inhibition of human recombinant PDPK1 assessed as residual activity at 10 uM after 1 hr by qPCR analysis relative to control
786-0 [30] = experiment: Antitumor activity against human 786-0 cells xenografted in athymic nude/beige mouse assessed as reduction in tumor mass at 0.16 mg/kg, ip qd after 24 days; assay type: functional, organism-based
[31] = target: Cyclin-dependent kinase 11B (Homo sapiens) (UniProt P21127); experiment: Inhibition of human recombinant CDK11 assessed as residual activity at 10 uM after 1 hr by qPCR analysis relative to control

SMILES: Cc1c(Cl)cccc1NC(=O)c1sc2nc3c(cc2c1N)C(=O)CC3
- Activity [1]: 62%
- Activity [2]: 100%
- Activity [3]: 100%
- Activity [4]: 92%
- Activity [5]: 84%
- Activity [6]: 98%
- Activity [7]: 100%
- Activity [8]: 100%
- Activity [9]: 100%
- Activity [10]: 100%
- Activity [11]: 100%
- TGI (786-0 [12]): Active
- Activity [13]: 94%
- Activity [14]: 95%
- Activity [15]: 100%
- Activity [16]: 95%
- Activity (Mus musculus [17]): Toxic
- Activity [18]: 94%
- Activity [19]: 95%
- Activity [20]: 90%
- Activity [21]: 100%
- Activity [22]: 90%
- Activity [23]: 100%
- Activity [24]: 94%
- Activity [25]: 97%
- Activity [26]: 100%
- Activity [27]: 100%
- Activity (Mus musculus [28]): Toxic
- Activity [29]: 100%
- Activity (786-0 [30]): Active
- Activity [31]: 100%
